Measured values published in patent publication US4837221A, “Methods of treating tumors susceptible to necrosis” (Efamol Ltd., priority 1984, dated 1989).
Values joined by “and” are separate entries in the source; they are usually repeats but may differ in a detail not shown here. Identical values can stand only once. “Also recorded” adds a separate entry of the source.

Experiments:
[1] = test system: transplantable mouse tumour originating in plasma cells; test: Depth of tumour necrosis after photosensitising drug and illumination (10J/cm^2) in mice; type: in vivo; settings: for Depths of tumour necrosis: 10J/cm^2 at 660nm, individual values; for effectiveness in DMSO versus alkali (in words): DMSO compared with alkali (NaOH); for effectiveness as photosensitiser for tumour tissue (in words): mouse assay
Procedure: The photosensitising drug is given intravenously in aqueous medium or intraperitoneally in DMSO, the tumour exposed to light at the appropriate wavelength and the depth of tumour necrosis measured. […] Results are shown in graph. The relative potency is determined by comparing amounts of drugs required to produce equal effects.
A preliminary comparison was made. […] The light dose was 10J/cm^2 at 660nm.

[2] = test system: transplantable mouse tumour originating in plasma cells; test: as above; type: in vivo; settings: for Necrosis (after 10J/cm^2), depth: ± S.E.M.
cranium (brain) of mice = test: Cerebral photosensitisation: deaths within 48 hours after white light to the cranium; type: in vivo, mouse; settings: 0.033 μM/kg i.v., 24 hours later 20J/cm^2 white light to cranium
Procedure: Deaths within 48 hours (due to acute cerebral oedema) were: […]

brain vascular lining = test: Cerebral photosensitisation: Evans blue in the brain after white light to the cranium; type: in vivo, mouse; settings: 0.033 μM/kg i.v., 20J/cm^2 white light; dye 4 hours after exposure, measured 1 hour later; groups of 5 mice
Procedure: Normally, very little is found, and this is largely dye still circulating in the blood 1 hour after injection, and not in the brain substance itself. An increase is produced by agents that damage the brain vascular lining, allowing dye to enter the brain substance.

depilated skin = test: Skin photosensitisation: increase in skin thickness after illumination; type: in vivo, mouse
Procedure: The increase in skin thickness was measured 4 hours after illumination.

Solubility = type: physicochemical

Oc1ccc(-c2c3nc(c(-c4ccc(O)cc4)c4ccc([nH]4)c(-c4ccc(O)cc4)c4nc(c(-c5ccc(O)cc5)c5ccc2[nH]5)C=C4)C=C3)cc1 [HK7.4EtOH]
Depths of tumour necrosis ([1]; 33 μM/kg, NaOH-DMSO): 0.25 mm and 0.5 mm and 0.75 mm and 2 mm
Depths of tumour necrosis ([1]; 67 μM/kg, DMSO): 3.75 mm and 4 mm (2×) and 5 mm

O=S(=O)(O)c1ccc(-c2c3nc(c(-c4ccc(S(=O)(=O)O)cc4)c4ccc([nH]4)c(-c4ccc(S(=O)(=O)O)cc4)c4nc(c(-c5ccc(S(=O)(=O)O)cc5)c5ccc2[nH]5)C=C4)C=C3)cc1 [tetra-(p-hydroxysulphonyl phenyl) porphyrin, reference compound]
necrosis depth ([2]; molar equivalent dose to HpD 67 μmol/kg, saline, 550 nm): 0.30±0.11 mm

Oc1ccc(-c2c3nc(c(-c4ccc(O)cc4)c4ccc([nH]4)c(-c4ccc(O)cc4)c4nc(c(-c5ccc(O)cc5)c5ccc2[nH]5)C=C4)C=C3)cc1 [K-HK7]
Necrosis (after 10J/cm^2), depth ([2]; 12.5 μM/kg, DMSO, 656 nm): 2.50 ± 0.44 mm
Necrosis (after 10J/cm^2), depth ([2]; 25 μM/kg, DMSO, 656 nm): 3.32 ± 0.59 mm
Necrosis (after 10J/cm^2), depth ([2]; 50 μM/kg, NaOH, 654 nm): 5.06 ± 0.12 mm

Oc1ccc(-c2c3nc(c(-c4ccc(O)cc4)c4ccc([nH]4)c(-c4ccc(O)cc4)c4nc(c(-c5ccc(O)cc5)c5ccc2[nH]5)C=C4)C=C3)cc1 [Li-HK7]
Necrosis (after 10J/cm^2), depth ([2]; 25 μM/kg, DMSO, 656 nm): 3.31 ± 0.40 mm and 3.00 ± 0.72 mm and 3.00 ± 0.51 mm
Necrosis (after 10J/cm^2), depth ([2]; 50 μM/kg, DMSO, 656 nm): 2.46 ± 0.38 mm and 3.50 ± 0.41 mm
necrosis depth ([2]; 12.5 μm/kg): below 1.0 mm

Oc1ccc(-c2c3nc(c(-c4ccc(O)cc4)c4ccc([nH]4)c(-c4ccc(O)cc4)c4nc(c(-c5ccc(O)cc5)c5ccc2[nH]5)C=C4)C=C3)cc1 [Na-HK7]
Necrosis (after 10J/cm^2), depth ([2]; 25 μM/kg, DMSO, 656 nm): 2.28 ± 0.47 mm
Necrosis (after 10J/cm^2), depth ([2]; 50 μM/kg, DMSO, 656 nm): 2.80 ± 0.12 mm and 3.79 ± 0.29 mm
Necrosis (after 10J/cm^2), depth ([2]; 50 μM/kg, NaOH, 664 nm): 3.15 ± 0.83 mm
necrosis depth ([2]; 12.5 μm/kg): below 1.0 mm

Oc1ccc(-c2c3nc(c(-c4ccc(O)cc4)c4ccc([nH]4)c(-c4ccc(O)cc4)c4nc(c(-c5ccc(O)cc5)c5ccc2[nH]5)C=C4)C=C3)cc1 [HK7, 5,10,15,20-tetra (4-hydroxyphenyl) porphyrin]
Depths of tumour necrosis ([1]; 33 μM/kg, NaOH-DMSO): 0.5 mm and 1.5 mm and 4.5 mm
Depths of tumour necrosis ([1]; 67 μM/kg, DMSO): 4 mm and 5 mm and 6 mm
effectiveness in DMSO versus alkali (in words) [1]: rather more effective administered in DMSO than in alkali
effectiveness as photosensitiser for tumour tissue (in words) [1]: more effective photosensitiser for tumour tissue in animal assay than is HpD
Deaths within 48 hours (due to acute cerebral oedema) (cranium (brain) of mice): 0/5
amount of Evans blue in the brain (brain vascular lining): 23.6 ± 3.65 μg dye/brain
skin photosensitisation, by 1 week (depilated skin; 1 week, equimolar doses, 10J/cm^2, HK7 vs HpD): little difference
skin photosensitisation, by 2 weeks (depilated skin; 2 weeks, maximum dose, 10J/cm^2): no longer sensitises to this dose of light
skin photosensitisation, 1 day after porphyrin injection (depilated skin; 1 day, equimolar doses, 10J/cm^2 (625nm HpD, 656nm HK7)): more potent skin sensitiser than HpD
skin photosensitisation, potency and persistence (depilated skin; HK7 compared with HpD, overall): less persistant than that caused by HpD; also recorded: more potent skin photosensitiser than HpD, but that the effect is more transient
solubility in neutral aqueous media (Solubility): relatively insoluble in neutral aqueous media
Necrosis (after 10J/cm^2), depth ([2]; 6.25 μM/kg, DMSO, 656 nm): 1.17 ± 0.31 mm and 0.85 ± 0.38 mm
Necrosis (after 10J/cm^2), depth ([2]; 12.5 μM/kg, DMSO, 656 nm): 2.86 ± 0.26 mm and 2.50 ± 0.52 mm
Necrosis (after 10J/cm^2), depth ([2]; 12.5 μM/kg, NaOH, 654 nm): 2.40 ± 0.10 mm
Necrosis (after 10J/cm^2), depth ([2]; 25 μM/kg, DMSO, 656 nm): 3.54 ± 0.48 mm and 2.63 ± 0.56 mm
Necrosis (after 10J/cm^2), depth ([2]; 25 μM/kg, NaOH, 654 nm): 3.64 ± 0.39 mm
Necrosis (after 10J/cm^2), depth ([2]; 25 μM/kg, NaOH, 669 nm): 2.75 ± 0.25 mm and 2.38 ± 0.24 mm
Necrosis (after 10J/cm^2), depth ([2]; 50 μM/kg, DMSO, 656 nm): 5.06 ± 0.48 mm
Necrosis (after 10J/cm^2), depth ([2]; 50 μM/kg, NaOH, 669 nm): 3.32 ± 0.63 mm and 3.25 ± 0.37 mm
effectiveness in tumour necrosis (in words) ([2]; 6.25 μm/kg): reasonably effective
tumour sensitisation at the dose of the cerebral test (in words) ([2]; 24 hours after dose, see graph): substantial tumour sensitisation
amount of drug required to produce equal effect (HK7 vs HpD) ([2]; i.v., 10J/cm^2, 630nm HpD, 658nm HK7): ~0.0125 µM/kg

Oc1cccc(-c2c3nc(c(-c4cccc(O)c4)c4ccc([nH]4)c(-c4cccc(O)c4)c4nc(c(-c5cccc(O)c5)c5ccc2[nH]5)C=C4)C=C3)c1 [meta-HK7]
effectiveness in DMSO versus alkali (in words) [1]: equally effective in both
effectiveness as photosensitiser for tumour tissue (in words) [1]: most active compound found
Necrosis (after 10J/cm^2), depth ([2]; 1.56 μM/kg, DMSO, 648 nm): 0.65 ± 0.22 mm
Necrosis (after 10J/cm^2), depth ([2]; 6.25 μM/kg, DMSO, 648 nm): 3.53 ± 0.49 mm and 2.88 ± 0.9 mm and 3.86 ± 0.18 mm
Necrosis (after 10J/cm^2), depth ([2]; 6.25 μM/kg, NaOH, 648 nm): 3.78 ± 0.36 mm and 3.64 ± 0.34 mm
Necrosis (after 10J/cm^2), depth ([2]; 12.5 μM/kg, DMSO, 648 nm): 4.44 ± 0.35 mm and 4.5 ± 0.5 mm
Necrosis (after 10J/cm^2), depth ([2]; 12.5 μM/kg, NaOH, 648 nm): 3.25 ± 0.33 mm
Necrosis (after 10J/cm^2), depth ([2]; 25.0 μM/kg, DMSO, 648 nm): 5.37 ± 0.55 mm
Necrosis (after 10J/cm^2), depth ([2]; 50.0 μM/kg, DMSO, 648 nm): 4.63 ± 0.64 mm
effectiveness in tumour necrosis (in words) ([2]; 1.56 μm/kg): some effect
effectiveness in tumour necrosis (in words) ([2]; 3.12 μm/kg): effective

Oc1ccccc1-c1c2nc(c(-c3ccccc3O)c3ccc([nH]3)c(-c3ccccc3O)c3nc(c(-c4ccccc4O)c4ccc1[nH]4)C=C3)C=C2 [ortho-HK7, 5,10,15,20-TETRA(o-HYDROXYPHENYL) PORPHYRIN]
Necrosis (after 10J/cm^2), depth ([2]; 6.25 μM/kg, DMSO, 648 nm): 2.45 ± 0.28 mm
Necrosis (after 10J/cm^2), depth ([2]; 12.5 μM/kg, DMSO, 648 nm): 3.03 ± 0.29 mm
Necrosis (after 10J/cm^2), depth ([2]; 25.0 μM/kg, DMSO, 648 nm): 4.21 ± 0.32 mm and 3.21 ± 0.56 mm
Necrosis (after 10J/cm^2), depth ([2]; 50.0 μM/kg, DMSO, 648 nm): 4.25 ± 0.50 mm
